Measurements reported in article PMC9197583 (Chemical communications (Cambridge, England), 2022).

Biological target: T1, NrtA (Synechocystis sp. PCC 6803, UniProt P73452)
T1 sequence (P73452 30-446): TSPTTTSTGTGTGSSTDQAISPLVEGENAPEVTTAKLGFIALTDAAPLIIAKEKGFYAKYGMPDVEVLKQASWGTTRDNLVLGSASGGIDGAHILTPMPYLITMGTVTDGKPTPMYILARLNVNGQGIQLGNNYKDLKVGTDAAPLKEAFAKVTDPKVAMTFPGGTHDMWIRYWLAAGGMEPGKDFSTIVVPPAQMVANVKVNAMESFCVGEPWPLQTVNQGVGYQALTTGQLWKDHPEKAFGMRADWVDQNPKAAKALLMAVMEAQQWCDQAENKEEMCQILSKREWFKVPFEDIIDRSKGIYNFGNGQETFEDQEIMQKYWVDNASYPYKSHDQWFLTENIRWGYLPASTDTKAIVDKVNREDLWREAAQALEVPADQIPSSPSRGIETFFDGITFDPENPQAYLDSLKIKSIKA
Experiment: isothermal titration calorimetry
Format: binding

Row | SMILES | Kd [µM]
1 | O=[N+]([O-])O [nitrate] | 0.057 ± 0.023
2 | O=NO [nitrite] | 0.23 ± 0.033
